Source: the supplement of paper PMC5412046

What was measured:
SB.mhdgc-1 = assay: AC50 for growth inhibition (viability) (log10 M); higher = less potent; conditions: SB.mhdgc-1 (hereditary c.1380delA CDH1 gastric cancer)
Summary of the method: (§1)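 Hereditary or sporadic patient-derived gastric cancer cells (500 cells in 5 μL medium per 1536 well) received 23 nL compound in DMSO by pintool. Dosing was 11 threefold dilutions starting at a final 46 μM. After 48 h, CellTiter-Glo was added for 30 min at room temperature and luminescence read on a ViewLux. Log half-maximal activity concentration came from a four-parameter fit of DMSO-normalised viability, keeping only high-quality curve classes.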

SB.msgc-1 = assay: as above; conditions: SB.msgc-1 (sporadic gastric cancer)
Summary of the method: as §1

| SMILES | AC50 for growth inhibition (log10 M) (SB.mhdgc-1) | AC50 for growth inhibition (log10 M) (SB.msgc-1) |
| --- | --- | --- |
| COC1=CC(c2cc3ccccc3[nH]2)=N/C1=C/c1[nH]c(C)cc1C [Obatoclax] | -5.43 | -5.33 |
| C[C@]12CC[C@@H]3c4ccc(O)cc4CC[C@H]3[C@@H]1[C@@H](O)[C@@H](O)[C@@H]2O [Estetrol] | -4.88 | -4.68 |
| C=CC(=O)Nc1ccc2ncnc(Nc3ccc(OCc4cccc(F)c4)c(Cl)c3)c2c1 [AST-1306] | -5.28 | -8.33 |
| Cc1ccc(C)c(OCCCC(C)(C)C(=O)O)c1 [Gemfibrozil] | -4.78 | -5.13 |
| C[C@@H]1[C@H](O)[C@@H](C)/C=C/C=C/C=C/C=C/C=C/C=C/C=C/[C@H](O[C@@H]2O[C@H](C)[C@@H](O)[C@H](N)[C@@H]2O)C[C@@H]2O[C@](O)(C[C@@H](O)C[C@@H](O)[C@H](O)CC[C@@H](O)C[C@@H](O)CC(=O)O[C@H]1C)C[C@H](O)[C@H]2C(=O)O [Amphotericin B] | -6.38 | -4.88 |
| NC/1=N/C(=O)C2=C(N1)[N](C=N2)[C@@H]3C[C@H](O)[C@@H](CO)C3=C [Entecavir] | -4.78 | -5.28 |
| CSC1=CC(=CC=C1)NC2=NC3=C(C=N2)/C=C(C(=O)N3C)/C4=C(Cl)C=CC=C4Cl | -5.78 | -5.93 |
| COc1ccc(CCC(=O)c2c(O)cc(O[C@@H]3O[C@H](CO)[C@@H](O)[C@H](O)[C@H]3O[C@@H]3O[C@@H](C)[C@H](O)[C@@H](O)[C@H]3O)cc2O)cc1O [Neohesperidin dihydrochalcone] | -5.28 | -5.18 |
| CC(C)(C)c1cc(C=C(C#N)C#N)cc(Br)c1O [AG-1024] | -5.03 | -5.43 |
| CC(C)(O)Cn1c(NC(=O)c2ccc(-c3cn[nH]c3)s2)nc2cc(CN3CCOCC3)ccc21 | -5.83 | -5.63 |
| N#Cc1c(C2CCNCC2)cc(-c2c(O)cccc2OCC2CC2)nc1N [IKK-2 Inhibitor VIII] | -4.88 | -4.73 |
| Clc1ccc(C(c2ccccc2Cl)C(Cl)Cl)cc1 (stereo not given) [Mitotane] | -4.88 | -4.73 |
| CCN1CCN(CC1)CC(=O)NC2=CC=C(C3=C2C4=C(S3)C=CC=C4)C5=C6O\C(=C/C(=O)C6=CC=C5)N7CCOCC7 | -5.73 | -5.68 |
| C[C@H](NC(=O)c1sccc1OCc1ccc(Cl)cc1)c1ccccc1 | -4.98 | -4.73 |
| c1cc(-c2cnn3cc(-c4ccc(OCCN5CCCCC5)cc4)cnc23)ccn1 [Dorsomorphin] | -4.83 | -4.78 |
| CC1=C(/C=C/C(C)=C/C=C/C(C)=C/C(=O)Nc2ccc(O)cc2)C(C)(C)CCC1 [Fenretinide] | -4.67 | -4.52 |
| CCOc1cc(C(=O)Nc2ccc(Cl)c(-c3nc4ccccc4[nH]3)c2)cc(OCC)c1OCC [SANT-2] | -5.93 | -5.18 |
| ClC1=CC\2=C(OC3=C(C=CC=C3)\N=C2N4CCNCC4)C=C1 [Amoxapine] | -4.63 | -4.78 |
| CC(=O)N(C)C1(c2ccccc2)CCN(CCC[C@]2(c3ccc(Cl)c(Cl)c3)CCCN(C(=O)c3ccccc3)C2)CC1 [Osanetant] | -4.98 | -4.78 |
| CC(C)c1cnn2c(NCc3ccccc3)cc(N[C@@H](CO)[C@H](O)CO)nc12 [BS-194] | -6.73 | -6.58 |
| CC1=C(C)C2=C(S1)[N]3C(=NN=C3[C@H](CC(=O)OC(C)(C)C)/N=C2/C4=CC=C(Cl)C=C4)C [JQ1] | -5.28 | -5.38 |
| COc1cc(Nc2ncc(F)c(Nc3ccc4c(n3)N(COP(=O)(O)O)C(=O)C(C)(C)O4)n2)cc(OC)c1OC [Fostamatinib disodium] | -5.33 | -5.93 |
| COc1cc2c(Oc3ccc(NC(=O)C4(C(=O)Nc5ccc(F)cc5)CC4)cc3F)ccnc2cc1OCCCN1CCOCC1 [Foretinib] | -4.83 | -4.73 |
| CC(C)OC(=O)OCOP(=O)(CO[C@H](C)Cn1cnc2c(N)ncnc21)OCOC(=O)OC(C)C.O=C(O)C=CC(=O)O [Tenofovir Disoproxil Fumarate] | -4.68 | -4.78 |
| CCOC(=O)C/1=C(C)/NC(=S)NC1C2=CC=CC(=C2)O (stereo not given) [Monastrol] | -7.38 | -7.38 |
